Data on three molecules can be found in US10556865B2, “Synergistic herbicidal composition containing certain pyridine or pyrimidine carboxylic acids and certain cereal and rice herbicides” (Dow AgroSciences, LLC, priority 2007, dated 2020).

Read-outs that look alike come from different tables or passages of the source.

Format in all cases: in vivo
Test [1] deals with bird's-eye speedwell (Veronica persica L; VERPE). Description: Postemergence herbicidal activity of mixtures in cereal crops (greenhouse, visual injury). As to conditions: for VERPE Ob: Table 28. The procedure, abridged:
(§1)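 Weeds grown in greenhouse (~14 h photoperiod, ~18/17 °C day/night) to second–third true leaf stage, sprayed postemergence with compound and second cereal herbicide alone or combined; solvent-blank controls. Injury scored visually after 20-22 days, 0–100% (complete kill); expected mixture activity = A+B−(A×B/100).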

The subject of test [2] is wild pansy (Viola tricolor L; VIOTR). Described as above. As to conditions: Viola tricolor, post-emergence, read-out: VIOTR Ob. In a few lines:
as §1

The test system of test [3] is Fimbristylis miliacea (L.) VAHL (FIMMI). Description: Postemergence herbicidal mixtures for weed control in direct seeded rice (greenhouse, visual % injury). As to conditions: FIMMI.
The subject of another test is Scirpus species (SCPSS). Briefly: Herbicidal mixtures for weed control in transplanted paddy rice (in-water application, visual % injury). As to conditions: SCPJU. The procedure, abridged: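 Weeds sown in flooded puddled mineral soil (pH ~7.3–7.8, ~1.0% organic matter) and treated at second–third true leaf stage by injecting acetone/2.5% Agri-dex stock into the paddy water. A, C and D dosed as acid equivalent, partner herbicides as active ingredient. Injury scored visually after 3 weeks in greenhouse, 0–100% versus untreated plants.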

`COC(=O)c1nc(-c2ccc(Cl)c(OC)c2F)cc(N)c1Cl` [Compound A Methyl, 4-amino-3-chloro-6-(4-chloro-2-fluoro-3-methoxyphenyl)pyridine-2-carboxylic acid methyl ester]: the pest or weed control at 17.5 g/ha in test [1] (Veronica persica, post-emergence, 17.5 g/ha, read-out: VERPE Ob) came to 45%; in test [2] (17.5 g/ha), 55%. Further, the pest or weed control at 35 g/ha turned out to be 58% in test [1] (Veronica persica, post-emergence, 35 g/ha, read-out: VERPE Ob) and 63% in test [2] (35 g/ha). The pest or weed control at 70 g/ha was determined as 70% in test [1] (Veronica persica, post-emergence, 70 g/ha, read-out: VERPE Ob) and 75% in test [2] (70 g/ha). For the same molecule, the “% Injury Ob” value in test [3] (4.38 g/ha alone) was 20%; in test [3] (8.75 g/ha alone), 40%; in the test on Scirpus species (SCPSS) (17.5 g/ha alone) it was 90%.
Take `COc1c(Cl)ccc(-c2cc(N)c(Cl)c(C(=O)O)n2)c1F` [Compound A TEA, 4-amino-3-chloro-6-(4-chloro-2-fluoro-3-methoxyphenyl)pyridine-2-carboxylic acid]: the “VERPE Ob” value in test [1] (35 g/ha) worked out at 75%; in test [1] (70 g/ha), 80%; in test [1] (140 g/ha), 85%. The pest or weed control at 8.75 g/ha was 48% in test [1] (Veronica persica, post-emergence, 8.75 g/ha alone, read-out: VERPE Ob) and 30% in test [2] (8.75 g/ha alone). Also, the pest or weed control at 17.5 g/ha in test [1] (Veronica persica, post-emergence, 17.5 g/ha alone, read-out: VERPE Ob) was determined as 68%; in test [2] (17.5 g/ha alone), 40%. Besides, the pest or weed control at 35 g/ha in test [1] (Veronica persica, post-emergence, 35 g/ha alone, read-out: VERPE Ob) stood at 79%; in test [1] (Veronica persica, post-emergence, 35 g/ha, 1st VERPE column, read-out: VERPE Ob), 60%; in test [1] (Veronica persica, post-emergence, 35 g/ha, 2nd VERPE column, read-out: VERPE Ob), 75%; in test [2] (35 g/ha alone), 47%; in test [2] (35 g/ha) it was 30%. Also, the pest or weed control at 70 g/ha in test [1] (Veronica persica, post-emergence, 70 g/ha alone, read-out: VERPE Ob) amounted to 88%; in test [1] (Veronica persica, post-emergence, 70 g/ha, 1st VERPE column, read-out: VERPE Ob), 60%; in test [1] (Veronica persica, post-emergence, 70 g/ha, 2nd VERPE column, read-out: VERPE Ob), 80%; in test [2] (70 g/ha alone) it was 60%; in test [2] (70 g/ha), 60%. Moreover, the pest or weed control at 140 g/ha worked out at 60% in test [1] (Veronica persica, post-emergence, 140 g/ha, 1st VERPE column, read-out: VERPE Ob); 85% in test [1] (Veronica persica, post-emergence, 140 g/ha, 2nd VERPE column, read-out: VERPE Ob); 60% in test [2] (140 g/ha). The “% Injury Ob” value is 60% with Scirpus species (SCPSS) (17.5 g/ha alone), 85% in the test on Scirpus species (SCPSS) (35 g/ha alone) and 95% with Scirpus species (SCPSS) (70 g/ha alone).
Regarding `O=C(O)c1c(Cl)ccc2cc(Cl)cnc12` [Quinclorac], the “% Injury Ob” value in test [3] (140 g/ha alone) was 0%.
